Experimental data taken from ChEMBL document CHEMBL1909046, “DrugMatrix in vitro pharmacology data”.

How the values were obtained:
[1] = target: Sodium-dependent noradrenaline transporter (Homo sapiens, UniProt P23975); experiment: DRUGMATRIX: Norepinephrine Transporter radioligand binding (ligand: [125I] RTI-55); assay type: cell membranes, MDCK, Membrane; details: mdck; Not Active = under 50% inhibition at 10 µM
[2] = DRUGMATRIX: Glutamate, NMDA, Agonism radioligand binding (ligand: [3H] CGP-39653); assay type: cell membranes, Rattus norvegicus, Wistar, Cerebral cortex, Membrane; details: Not Active = under 50% inhibition at 10 µM
[3] = target: cGMP-specific 3',5'-cyclic phosphodiesterase (Homo sapiens, UniProt O76074); experiment: DRUGMATRIX: Phosphodiesterase PDE5 enzyme inhibition (substrate: [3H]cGMP + cGMP); assay type: tissue-based, Platelet; details: platelet; Not Active = under 50% inhibition at 10 µM
[4] = target: Tyrosine-protein kinase Lck (Homo sapiens, UniProt P06239); experiment: DRUGMATRIX: Protein Tyrosine Kinase, LCK enzyme inhibition (substrate: Poly(Glu:Tyr)); assay type: cell-based, Insect cells; details: insect cells; Not Active = under 50% inhibition at 10 µM
Vasopressin V1a receptor = Vasopressin V1a receptor (Homo sapiens, UniProt P37288); assay type: cell membranes, Membrane; details: hek293; further: in other assays of this panel Not Active means under 50% inhibition at 10 µM
[5] = target: T1, 3-hydroxy-3-methylglutaryl-coenzyme A reductase (Homo sapiens, UniProt P04035); design: species or system Escherichia coli;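 further: enzyme inhibition assay of HMG-CoA reductase using radiolabeled [14C]HMG-CoA as substrate; in other assays of this panel Not Active means under 50% inhibition at 10 µM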
T1 sequence (P04035 whole entry): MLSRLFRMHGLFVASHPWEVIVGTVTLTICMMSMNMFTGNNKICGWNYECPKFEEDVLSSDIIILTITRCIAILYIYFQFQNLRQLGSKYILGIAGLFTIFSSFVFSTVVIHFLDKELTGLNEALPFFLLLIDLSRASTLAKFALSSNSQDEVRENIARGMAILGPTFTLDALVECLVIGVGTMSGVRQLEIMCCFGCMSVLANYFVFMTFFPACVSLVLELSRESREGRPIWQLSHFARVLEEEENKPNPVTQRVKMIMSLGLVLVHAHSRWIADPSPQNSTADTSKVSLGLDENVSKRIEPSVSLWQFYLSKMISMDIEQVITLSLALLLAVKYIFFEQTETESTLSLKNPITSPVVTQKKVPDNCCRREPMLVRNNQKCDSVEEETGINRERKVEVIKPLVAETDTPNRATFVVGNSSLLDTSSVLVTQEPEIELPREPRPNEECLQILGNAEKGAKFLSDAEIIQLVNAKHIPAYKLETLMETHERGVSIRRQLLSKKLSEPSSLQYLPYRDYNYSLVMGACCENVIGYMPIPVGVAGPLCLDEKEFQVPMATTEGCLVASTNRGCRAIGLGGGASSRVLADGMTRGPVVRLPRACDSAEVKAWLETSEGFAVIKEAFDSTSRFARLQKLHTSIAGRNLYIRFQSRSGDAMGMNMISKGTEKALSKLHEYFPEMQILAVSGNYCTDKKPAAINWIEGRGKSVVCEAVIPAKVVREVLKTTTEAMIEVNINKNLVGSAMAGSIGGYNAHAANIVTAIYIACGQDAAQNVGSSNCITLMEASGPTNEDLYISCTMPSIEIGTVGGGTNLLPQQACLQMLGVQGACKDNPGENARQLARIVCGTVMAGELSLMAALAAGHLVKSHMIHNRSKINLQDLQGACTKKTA

Substance-K receptor = target: T2, Substance-K receptor (Homo sapiens, UniProt P21452); assay type: cell membranes, CHO, Membrane; details: cho; further: in other assays of this panel Not Active means under 50% inhibition at 10 µM
T2 sequence (P21452 whole entry): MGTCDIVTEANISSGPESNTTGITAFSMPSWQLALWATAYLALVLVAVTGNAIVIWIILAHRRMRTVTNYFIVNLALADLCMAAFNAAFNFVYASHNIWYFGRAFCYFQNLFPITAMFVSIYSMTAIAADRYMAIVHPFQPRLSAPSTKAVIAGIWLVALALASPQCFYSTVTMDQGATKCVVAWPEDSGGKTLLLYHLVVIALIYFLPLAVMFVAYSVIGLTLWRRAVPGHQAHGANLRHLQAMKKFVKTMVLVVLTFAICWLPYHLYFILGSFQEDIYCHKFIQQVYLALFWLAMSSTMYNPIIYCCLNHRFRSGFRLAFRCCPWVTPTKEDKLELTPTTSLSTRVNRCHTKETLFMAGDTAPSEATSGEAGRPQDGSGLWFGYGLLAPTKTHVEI

Chain of Tyrosine-protein kinase Lck (P06239 whole entry): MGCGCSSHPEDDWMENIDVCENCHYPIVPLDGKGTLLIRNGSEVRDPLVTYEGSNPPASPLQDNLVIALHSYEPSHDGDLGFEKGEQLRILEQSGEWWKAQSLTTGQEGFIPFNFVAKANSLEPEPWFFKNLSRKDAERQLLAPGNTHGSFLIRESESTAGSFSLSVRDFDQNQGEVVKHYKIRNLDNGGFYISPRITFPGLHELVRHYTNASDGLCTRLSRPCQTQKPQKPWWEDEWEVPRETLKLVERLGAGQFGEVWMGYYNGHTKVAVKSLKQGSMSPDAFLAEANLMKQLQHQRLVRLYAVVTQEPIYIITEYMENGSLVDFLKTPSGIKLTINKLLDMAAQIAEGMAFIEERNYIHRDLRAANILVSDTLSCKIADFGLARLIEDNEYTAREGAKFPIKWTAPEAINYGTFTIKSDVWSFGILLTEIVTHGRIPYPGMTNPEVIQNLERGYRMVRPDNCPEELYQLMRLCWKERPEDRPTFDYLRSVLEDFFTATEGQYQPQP
Chain of Sodium-dependent noradrenaline transporter (P23975 whole entry): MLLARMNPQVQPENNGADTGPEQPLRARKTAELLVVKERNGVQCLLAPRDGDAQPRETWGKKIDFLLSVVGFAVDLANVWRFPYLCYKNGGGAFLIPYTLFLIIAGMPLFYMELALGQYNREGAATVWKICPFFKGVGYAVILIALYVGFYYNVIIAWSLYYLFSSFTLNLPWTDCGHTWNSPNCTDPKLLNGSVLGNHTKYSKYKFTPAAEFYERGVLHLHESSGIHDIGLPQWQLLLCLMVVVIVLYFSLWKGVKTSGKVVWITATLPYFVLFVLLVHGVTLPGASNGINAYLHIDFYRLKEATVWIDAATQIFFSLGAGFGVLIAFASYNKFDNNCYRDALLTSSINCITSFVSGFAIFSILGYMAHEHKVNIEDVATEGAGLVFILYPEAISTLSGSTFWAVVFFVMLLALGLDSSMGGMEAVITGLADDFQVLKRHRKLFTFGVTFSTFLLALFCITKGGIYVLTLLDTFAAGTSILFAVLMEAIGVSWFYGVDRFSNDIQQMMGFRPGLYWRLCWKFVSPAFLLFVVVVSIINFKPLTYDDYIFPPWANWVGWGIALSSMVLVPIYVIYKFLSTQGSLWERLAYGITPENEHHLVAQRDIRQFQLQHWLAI
Chain of Vasopressin V1a receptor (P37288 whole entry): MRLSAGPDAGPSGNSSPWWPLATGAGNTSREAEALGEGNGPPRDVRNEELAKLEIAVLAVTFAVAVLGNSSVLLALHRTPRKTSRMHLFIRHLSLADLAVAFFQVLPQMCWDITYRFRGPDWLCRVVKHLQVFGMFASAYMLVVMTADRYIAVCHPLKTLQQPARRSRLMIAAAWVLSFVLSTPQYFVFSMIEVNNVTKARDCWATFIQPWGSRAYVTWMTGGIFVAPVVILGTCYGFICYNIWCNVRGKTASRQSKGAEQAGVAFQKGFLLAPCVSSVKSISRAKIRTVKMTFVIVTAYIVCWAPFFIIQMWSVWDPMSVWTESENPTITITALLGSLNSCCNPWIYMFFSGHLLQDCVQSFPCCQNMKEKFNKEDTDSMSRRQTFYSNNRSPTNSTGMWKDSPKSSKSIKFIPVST

CO/N=C(\C(=O)N[C@@H]1C(=O)N2C(C(=O)O)=C(COC(C)=O)CS[C@H]12)c1csc(N)n1 [CEFOTAXIME]
Not Active: IC50 [1] | IC50 [2] | Ki [2] | IC50 [3] | IC50 [4] | IC50 (Vasopressin V1a receptor) | IC50 [5] | IC50 (Substance-K receptor)

CNC1=Nc2ccc(Cl)cc2C(c2ccccc2)=[N+]([O-])C1 [CHLORDIAZEPOXIDE]
Not Active: IC50 [1] | IC50 [2] | Ki [2] | IC50 [3] | IC50 [4] | IC50 (Vasopressin V1a receptor) | IC50 [5] | IC50 (Substance-K receptor)

Cc1cc(O)cc(C)c1Cl [CHLOROXYLENOL]
Not Active: IC50 [1] | IC50 [2] | Ki [2] | IC50 [3] | IC50 [4] | IC50 (Vasopressin V1a receptor) | IC50 [5] | IC50 (Substance-K receptor)

CCCNC(=O)NS(=O)(=O)c1ccc(Cl)cc1 [CHLORPROPAMIDE]
Not Active: IC50 [1] | IC50 [2] | Ki [2] | IC50 [3] | IC50 [4] | IC50 (Vasopressin V1a receptor) | IC50 [5] | IC50 (Substance-K receptor)

NS(=O)(=O)c1cc(C2(O)NC(=O)c3ccccc32)ccc1Cl (stereo not given) [CHLORTHALIDONE]
Not Active: IC50 [1] | IC50 [2] | Ki [2] | IC50 [3] | IC50 [4] | IC50 (Vasopressin V1a receptor) | IC50 [5] | IC50 (Substance-K receptor)

O=C(O)CC(O)(CC(=O)O)C(=O)O [CITRIC ACID]
Not Active: IC50 [1] | IC50 [2] | Ki [2] | IC50 [3] | IC50 [4] | IC50 (Vasopressin V1a receptor) | IC50 [5] | IC50 (Substance-K receptor)

CC(C)NCC(O)c1ccccc1Cl (stereo not given) [CLORPRENALINE]
Not Active: IC50 [1] | IC50 [2] | Ki [2] | IC50 [3] | IC50 [4] | IC50 (Vasopressin V1a receptor) | IC50 [5] | IC50 (Substance-K receptor)

CN1CCN(C(c2ccccc2)c2ccccc2)CC1 [CYCLIZINE]
Not Active: IC50 [1] | IC50 [2] | Ki [2] | IC50 [3] | IC50 [4] | IC50 (Vasopressin V1a receptor) | IC50 [5] | IC50 (Substance-K receptor)

CN1C[C@@H]2C[C@H]1CN2c1cc2c(cc1F)c(=O)c(C(=O)O)cn2C1CC1 [DANOFLOXACIN]
Not Active: IC50 [1] | IC50 [2] | Ki [2] | IC50 [3] | IC50 [4] | IC50 (Vasopressin V1a receptor) | IC50 [5] | IC50 (Substance-K receptor)

COc1cccc2c1C(=O)c1c(O)c3c(c(O)c1C2=O)C[C@@](O)(C(C)=O)C[C@@H]3O[C@H]1C[C@H](N)[C@H](O)[C@H](C)O1 [DAUNORUBICIN]
Not Active: IC50 [1] | IC50 [2] | Ki [2] | IC50 [3] | IC50 [4] | IC50 (Vasopressin V1a receptor) | IC50 [5] | IC50 (Substance-K receptor)

O=C(O)c1cc(-c2ccc(F)cc2F)ccc1O [DIFLUNISAL]
Not Active: IC50 [1] | IC50 [2] | Ki [2] | IC50 [3] | IC50 [4] | IC50 (Vasopressin V1a receptor) | IC50 [5] | IC50 (Substance-K receptor)

C[S+](C)[O-] [DIMETHYL SULFOXIDE]
Not Active: IC50 [1] | IC50 [2] | Ki [2] | IC50 [3] | IC50 [4] | IC50 (Vasopressin V1a receptor) | IC50 [5] | IC50 (Substance-K receptor)

CC1=NN(c2ccccc2)C(=O)C1 [EDARAVONE]
Not Active: IC50 [1] | IC50 [2] | Ki [2] | IC50 [3] | IC50 [4] | IC50 (Vasopressin V1a receptor) | IC50 [5] | IC50 (Substance-K receptor)

CC(C)C[C@H]1C(=O)N2CCC[C@H]2[C@]2(O)O[C@](NC(=O)[C@@H]3C=C4c5cccc6[nH]cc(c56)C[C@H]4N(C)C3)(C(C)C)C(=O)N12 [ERGOCRYPTINE]
Not Active: IC50 [1] | IC50 [2] | Ki [2] | IC50 [3] | IC50 [4] | IC50 (Vasopressin V1a receptor) | IC50 [5] | IC50 (Substance-K receptor)

C[C@]12CC[C@@H]3c4ccc(O)cc4CC[C@H]3[C@@H]1C[C@@H](O)[C@@H]2O [ESTRIOL]
Not Active: IC50 [1] | IC50 [2] | Ki [2] | IC50 [3] | IC50 [4] | IC50 (Vasopressin V1a receptor) | IC50 [5] | IC50 (Substance-K receptor)

C#C[C@]1(O)CC[C@H]2[C@@H]3CCC4=CC(=O)CC[C@]4(C)[C@H]3CC[C@@]21C [ETHISTERONE]
Not Active: IC50 [1] | IC50 [2] | Ki [2] | IC50 [3] | IC50 [4] | IC50 (Vasopressin V1a receptor) | IC50 [5] | IC50 (Substance-K receptor)

CC(O)(P(=O)(O)O)P(=O)(O)O [ETIDRONIC ACID]
Not Active: IC50 [1] | IC50 [2] | Ki [2] | IC50 [3] | IC50 [4] | IC50 (Vasopressin V1a receptor) | IC50 [5] | IC50 (Substance-K receptor)

CC(C)(C(=O)O)c1ccc(C(O)CCCN2CCC(C(O)(c3ccccc3)c3ccccc3)CC2)cc1 (stereo not given) [FEXOFENADINE]
Not Active: IC50 [1] | IC50 [2] | Ki [2] | IC50 [3] | IC50 [4] | IC50 (Vasopressin V1a receptor) | IC50 [5] | IC50 (Substance-K receptor)

CN1CCN(c2c(F)cc3c(=O)c(C(=O)O)cn(CCF)c3c2F)CC1 [FLEROXACIN]
Not Active: IC50 [1] | IC50 [2] | Ki [2] | IC50 [3] | IC50 [4] | IC50 (Vasopressin V1a receptor) | IC50 [5] | IC50 (Substance-K receptor)

O=c1[nH]c(=O)n([C@H]2C[C@H](O)[C@@H](CO)O2)cc1F [FLOXURIDINE]
Not Active: IC50 [1] | IC50 [2] | Ki [2] | IC50 [3] | IC50 [4] | IC50 (Vasopressin V1a receptor) | IC50 [5] | IC50 (Substance-K receptor)

COC(=O)Nc1nc2cc(C(=O)c3ccc(F)cc3)ccc2[nH]1 [FLUBENDAZOLE]
Not Active: IC50 [1] | IC50 [2] | Ki [2] | IC50 [3] | IC50 [4] | IC50 (Vasopressin V1a receptor) | IC50 [5] | IC50 (Substance-K receptor)

CC(=O)OCC(=O)[C@@]1(O)CC[C@H]2[C@@H]3CCC4=CC(=O)CC[C@]4(C)[C@@]3(F)[C@@H](O)C[C@@]21C [FLUDROCORTISONE ACETATE]
Not Active: IC50 [1] | IC50 [2] | Ki [2] | IC50 [3] | IC50 [4] | IC50 (Vasopressin V1a receptor) | IC50 [5] | IC50 (Substance-K receptor)

CCOC(=O)c1ncn2c1CN(C)C(=O)c1cc(F)ccc1-2 [FLUMAZENIL]
Not Active: IC50 [1] | IC50 [2] | Ki [2] | IC50 [3] | IC50 [4] | IC50 (Vasopressin V1a receptor) | IC50 [5] | IC50 (Substance-K receptor)

CC(=O)OCC(=O)[C@@]12OC(C)(C)O[C@@H]1C[C@H]1[C@@H]3C[C@H](F)C4=CC(=O)C=C[C@]4(C)[C@@]3(F)[C@@H](O)C[C@@]12C [FLUOCINONIDE]
Not Active: IC50 [1] | IC50 [2] | Ki [2] | IC50 [3] | IC50 [4] | IC50 (Vasopressin V1a receptor) | IC50 [5] | IC50 (Substance-K receptor)

O=C(O)P(=O)(O)O [FOSCARNET]
Not Active: IC50 [1] | IC50 [2] | Ki [2] | IC50 [3] | IC50 [4] | IC50 (Vasopressin V1a receptor) | IC50 [5] | IC50 (Substance-K receptor)
